Assay results: patent US11384078B2, “5,6-fused-bicyclic compounds and compositions for the treatment of parasitic diseases” (NOVARTIS AG, priority 2017, dated 2022)
Read-outs that look alike come from different tables or passages of the source.

Key:
Assay type in all cases: cell-based
[1] = system: Leishmania donovani axenic amastigote; assay: In vitro assay for growth inhibition of Leishmania donovani axenic amastigote (Cell TiterGlo luminescence); settings: Leishmania donovani, L. donovani axenic amastigotes in vitro; read-out: L. donovani amastigotes EC50
In short: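 Axenic L. donovani amastigotes (9600/well) grown at 37 °C, 5% CO2 in supplemented RPMI 1640, pH 5.5, with compound added from DMSO. After two days, viability read by CellTiter-Glo luminescence against DMSO and control-compound wells.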

[2] = system: L. donovani HU3 strain in mouse peritoneal macrophages; assay: Assay for inhibition of parasitemia of Leishmania donovani in mouse macrophages (SYBR Green nuclei count, high-content imaging); settings: L. donovani in mouse peritoneal macrophages, read-out: L. donovani in Mouse Macrophages EC50
In short: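 Peritoneal macrophages from uninfected BALB/c mice were infected for 24 h with spleen-derived L. donovani HU3 (4×10^5 parasites per 2×10^4 macrophages), then cultured with compound for 5 days at 37° C, 5% CO2. After fixation and permeabilization, parasite nuclei were stained with SYBR Green and counted by high-content imaging.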

[3] = system: Trypanosoma cruzi amastigotes cultured in 3T3 fibroblast cells; assay: Assay for growth inhibition of kinetoplastid parasite Trypanosoma cruzi (beta-galactosidase Tulahuen strain, CPRG readout); settings: Trypanosoma cruzi, Fibroblast, T. cruzi amastigotes in 3T3 fibroblast cells; read-out: Buckner infectious T. cruzi EC50
In short: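 3T3 fibroblasts (1,000 cells/well) plated overnight, treated with compound in DMSO, then infected with 10,000 Lac-Z-expressing Tulahuen trypomastigotes. After 6 days, 0.6 mM CPRG with 0.6% NP-40 added for 2 h at room temperature; absorbance gives relative intracellular amastigote numbers. Benznidazole and nifurtimox serve as positive controls.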

[4] = system: Trypanosoma brucei brucei (Lister 427) strain; assay: Assay for growth inhibition against Trypanosoma brucei brucei (Cell TiterGlo ATP luminescence); settings: T. brucei brucei (Lister 427), read-out: T. Brucei (HAT) EC50
In short: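 T. b. brucei Lister 427 grown in HMI-9 with 10% FBS and 10% serum plus, seeded at 10,000 parasites/mL with 10-point threefold compound dilutions in duplicate, 37 °C for 2 days. Viability read as ATP luminescence 30 min after Cell TiterGlo; IC50 versus untreated controls.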

[5] = Leishmania donovani, Peritoneal macrophage

SMILES | EC50 [1] | EC50 [2, 5] | EC50 [3] | EC50 ([4]; Trypanosoma brucei) | EC50 [4] | EC50 [2]
Cc1nc(C(=O)Nc2ccc(F)c(-n3cc4cc(C(C)C)cnc4n3)c2)c(C(F)(F)F)o1 [Compound 68, N-{4-fluoro-3-[5-(propan-2-yl)-2H-pyrazolo[3,4-b]pyridin-2-yl]phenyl}-2-methyl-5-(trifluoromethyl)-1,3-oxazole-4-carboxamide] | 2200 nM | 2800 nM | 160 nM | 510 nM | – | –
O=C(Nc1ccc(F)c(-n2cc3cc(N4CCN(CC(F)(F)F)CC4)cnc3n2)c1)N1CCC1 [Compound 250, N-(4-fluoro-3-{5-[4-(2,2,2-trifluoroethyl)piperazin-1-yl]-2H-pyrazolo[3,4-b]pyridin-2-yl}phenyl)azetidine-1-carboxamide] | 43 nM | 10 nM | 1 nM | 5 nM | – | –
O=C(Nc1ccc(F)c(-n2cc3cc(N4CC(F)C4)cnc3n2)c1)C1CC1 [Compound 327, N-{4-fluoro-3-[5-(3-fluoroazetidin-1-yl)-2H-pyrazolo[3,4-b]pyridin-2-yl]phenyl}cyclopropanecarboxamide] | 351 nM | 1200 nM | 149 nM | 232 nM | – | –
O=C(Nc1ccc(F)c(-n2cc3cc(N4CC(F)C4)cnc3n2)c1)N1CCC1 [Compound 292, N-{4-fluoro-3-[5-(3-fluoroazetidin-1-yl)-2H-pyrazolo[3,4-b]pyridin-2-yl]phenyl}azetidine-1-carboxamide] | 5 nM | 8 nM | 3 nM | – | 5 nM | –
O=C(Nc1ccc(F)c(-n2cc3cc(Br)cnc3n2)c1)N1CC[C@@H](F)C1 [Compound 127, (R)—N-(3-(5-bromo-2H-pyrazolo[3,4-b]pyridin-2-yl)-4-fluorophenyl)-3-fluoropyrrolidine-1-carboxamide] | 25 nM | 17 nM | 6.8 nM | < 23 nM | – | –
O=C(Nc1ccc(F)c(-n2cc3cc(C4CCC4)cnc3n2)c1)N1CCC1 [Compound 93, N-(3-{5-cyclobutyl-2H-pyrazolo[3,4-b]pyridin-2-yl}-4-fluorophenyl)azetidine-1-carboxamide] | 34 nM | 32 nM | 7 nM | < 23 nM | – | –
O=C(Nc1ccc(F)c(-n2cc3cc(-c4cnn(C5CC5)c4)cnc3n2)c1)N1CC(F)C1 [Compound 325, N-{3-[5-(1-cyclopropyl-1H-pyrazol-4-yl)-2H-pyrazolo[3,4-b]pyridin-2-yl]-4-fluorophenyl}-3-fluoroazetidine-1-carboxamide] | 8 nM | 50 nM | 36 nM | 11 nM | – | –
O=C(Nc1ccc(F)c(-n2cc3cc(C4CCOCC4)cnc3n2)c1)N1CC(F)(F)C1 [Compound 165, 3,3-difluoro-N-{4-fluoro-3-[5-(oxan-4-yl)-2H-pyrazolo[3,4-b]pyridin-2-yl]phenyl}azetidine-1-carboxamide] | 10 nM | 10 nM | 40 nM | < 23 nM | – | –
O=C(Nc1ccc(F)c(-n2cc3cc(N4CCC5(CC5)C4)cnc3n2)c1)N1CC(F)C1 [Compound 241, N-[3-(5-{5-azaspiro[2.4]heptan-5-yl}-2H-pyrazolo[3,4-b]pyridin-2-yl)-4-fluorophenyl}-3-fluoroazetidine-1-carboxamide] | 1190 nM | 6 nM | 3 nM | 5 nM | – | –
CC(C)c1cnc2nn(-c3cc(NC(=O)CCC4CC4)ccc3F)cc2c1 [Compound 215, 3-cyclopropyl-N-{4-fluoro-3-[5-(propan-2-yl)-2H-pyrazolo[3,4-b]pyridin-2-yl]phenyl}propanamide] | 4700 nM | 2980 nM | 738 nM | 947 nM | – | –
CC(C)OC(=O)Nc1cnc2nn(-c3cc(NC(=O)c4ccco4)ccc3F)cc2c1 [Compound 123, propan-2-yl N-{2-[2-fluoro-5-(furan-2-amido)phenyl}-2H-pyrazolo[3,4-b]pyridin-5-yl}carbamate] | 9.4 nM | 8.9 nM | 4.4 nM | < 23 nM | – | –
O=C(Nc1ccc(F)c(-n2cc3cc(N4CCC5(CCOCC5)C4)cnc3n2)c1)N1CC(F)C1 [Compound 244, 3-fluoro-N-[4-fluoro-3-(5-{8-oxa-2-azaspiro[4.5]decan-2-yl}-2H-pyrazolo[3,4-b]pyridin-2-yl)phenyl}azetidine-1-carboxamide] | 550 nM | 21 nM | 14 nM | 5 nM | – | –
CC(C)(C)Cc1cnc2nn(-c3cc(NC(=O)N4CC[C@@H](F)C4)ccc3F)cc2c1 [Compound 46, (3R)-N-{3-[5-(2,2-dimethylpropyl)-2H-pyrazolo[3,4-b]pyridin-2-yl]-4-fluorophenyl}-3-fluoropyrrolidine-1-carboxamide] | 8.4 nM | 3.5 nM | 1.7 nM | < 23 nM | – | –
O=C(Nc1ccc(F)c(-n2cc3cc(N4CC(F)(F)C4)cnc3n2)c1)[C@@H]1C[C@H]1F (single isomer, unassigned) [Compound 268, (1 S,2R)—N-(3-(5-(3,3-difluoroazetidin-1-yl)-2H-pyrazolo[3,4-b]pyridin-2-yl)-4-fluorophenyl)-2-fluorocyclopropane-1-carboxamide or (1R,2S)—N-(3-(5-(3,3-difluoroazetidin-1-yl)-2H-pyrazolo[3,4-b]pyridin-2-yl)-4-fluorophenyl)-2-fluorocyclopropane-1-carboxamide] | 84 nM | – | 82 nM | – | 116 nM | 273 nM
O=C(Nc1ccc(F)c(-n2cc3cc(-c4ccccn4)cnc3n2)c1)C1=CCC1 [Compound 218, N-{4-fluoro-3-[5-(pyridin-2-yl)-2H-pyrazolo[3,4-b]pyridin-2-yl]phenyl}cyclobut-1-ene-1-carboxamide] | 4 nM | 212 nM | 38 nM | 3 nM | – | –
CNC(=O)Nc1ccc(F)c(-n2cc3cc(NC)cnc3n2)c1 [Compound 142, 1-{4-fluoro-3-[5-(methylamino)-2H-pyrazolo[3,4-b]pyridin-2-yl]phenyl}-3-methylurea] | 7800 nM | 9200 nM | 11000 nM | 4300 nM | – | –
CC(C)OC(=O)Nc1cnc2nn(-c3cc(NC(=O)N4CCC4)ccc3F)cc2c1 [Compound 138, propan-2-yl N-(2-{5-[(azetidine-1-carbonyl)amino]-2-fluorophenyl}-2H-pyrazolo[3,4-b]pyridin-5-yl)carbamate] | 11 nM | 5.7 nM | 47 nM | < 23 nM | – | –
O=C(Nc1ccc(Cl)c(-n2cc3cc(-c4ccccn4)cnc3n2)c1)N1CCC1 [Compound 285, N-{4-chloro-3-[5-(pyridin-2-yl)-2H-pyrazolo[3,4-b]pyridin-2-yl]phenyl}azetidine-1-carboxamide] | 4 nM | 9 nM | 3 nM | 4 nM | – | –
O=C(Nc1ccc(F)c(-n2cc3cc(C4CC4)cnc3n2)c1)N1CCC1 [Compound 91, N-(3-{5-cyclopropyl-2H-pyrazolo[3,4-b]pyridin-2-yl}-4-fluorophenyl)azetidine-1-carboxamide] | 8.7 nM | 8.6 nM | 4.1 nM | < 23 nM | – | –
